Patent US9365613B2, “Acylated 4-amidino- and -4-guanidinobenzylamines for inhibition of plasma kallikrein” (The Medicines Company (Leipzig) GmbH, priority 2003, dated 2016)

Tests used:
Type in all cases: biochemical
[1] = biological target: plasma kallikrein (PK) (Homo sapiens, UniProt P03952); experiment: Determining the inhibitory constants: inhibition of PK (substrate Bzl-Pro-Phe-Arg-pNA); settings: Tris buffer pH 8.0, 25° C.; mean of at least three determinations
Procedure: (§1) The inhibitory effect for the individual enzymes was determined in analogy with a method which has already been described (Stürzebecher et al., J. Med. Chem. 40, 3091-3099, 1997).
(§2) After 3 min, the reaction was terminated by adding 25 μl of acetic acid (50%) and the absorption at […] was determined using a Microplate Reader (Labsystems iEMS Reader MF). The Ki values were determined, in accordance with Dixon (Biochem. J. 55, 170-171, 1953), by means of linear regression and using a computer program. The Ki values are the mean of at least three determinations.

[2] = biological target: T1, human factor XIIa (Homo sapiens, UniProt P00748); experiment: Inhibitory constants for factor XIIa (substrate H-D-HHT-Gly-Arg-pNA, Chromozym XII); settings: read-out: Ki F XIIa
T1 construct: purchased Haemochrom Diagnostica GmbH, Essen, Germany
Procedure: as §1, §2
(§3) The inhibition of factor XIa and factor XIIa was determined in an analogous manner. When determining the inhibitory constants for human factor XIa (Haemochrom Diagnostica GmbH, Essen, Germany), H-D-Lys(Z)-Pro-Arg-pNA (Chromozym PCa, Roche Diagnostics GmbH, Mannheim, Germany) was used as the substrate.
H-D-HHT-Gly-Arg-pNA (Chromozym XII, Roche Diagnostics GmbH, Mannheim, Germany) was used as the substrate for measuring the inhibitory constants of human factor XIIa (Haemochrom Diagnostica GmbH, Essen, Germany).

[3] = biological target: T2, human factor XIa (Homo sapiens, UniProt P03951); experiment: Inhibitory constants for factor XIa (substrate H-D-Lys(Z)-Pro-Arg-pNA, Chromozym PCa); settings: read-out: Ki F XIa
T2 construct: purchased Haemochrom Diagnostica GmbH, Essen, Germany
Procedure: as §1, §2, §3

[4] = biological target: thrombin (UniProt P00735); experiment: Inhibitory constants for thrombin; settings: read-out: Ki Thrombin

plasma kallikrein (PK), sequence (P03952 391-638 limits assumed, species assumed): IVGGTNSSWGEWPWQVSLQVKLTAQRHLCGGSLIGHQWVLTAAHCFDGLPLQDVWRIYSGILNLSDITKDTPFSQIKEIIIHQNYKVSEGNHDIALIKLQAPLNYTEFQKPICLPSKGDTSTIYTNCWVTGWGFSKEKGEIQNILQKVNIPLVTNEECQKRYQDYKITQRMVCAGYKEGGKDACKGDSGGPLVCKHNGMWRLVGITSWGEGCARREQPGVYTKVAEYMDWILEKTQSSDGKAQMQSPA
plasma kallikrein (PK), sequence (P03952 20-390 partner limits assumed, species assumed): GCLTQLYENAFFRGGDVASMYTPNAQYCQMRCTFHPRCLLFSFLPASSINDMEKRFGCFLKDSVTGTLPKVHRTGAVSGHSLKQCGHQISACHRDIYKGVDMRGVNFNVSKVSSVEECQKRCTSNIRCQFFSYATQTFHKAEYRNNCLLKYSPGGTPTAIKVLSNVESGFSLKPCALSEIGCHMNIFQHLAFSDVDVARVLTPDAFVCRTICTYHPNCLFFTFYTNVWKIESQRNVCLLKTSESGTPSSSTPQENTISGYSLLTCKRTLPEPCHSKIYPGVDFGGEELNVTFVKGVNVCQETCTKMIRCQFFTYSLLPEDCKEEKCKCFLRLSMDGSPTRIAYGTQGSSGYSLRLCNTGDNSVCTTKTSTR
T1 sequence (P00748 373-615 limits assumed, other chains not shown): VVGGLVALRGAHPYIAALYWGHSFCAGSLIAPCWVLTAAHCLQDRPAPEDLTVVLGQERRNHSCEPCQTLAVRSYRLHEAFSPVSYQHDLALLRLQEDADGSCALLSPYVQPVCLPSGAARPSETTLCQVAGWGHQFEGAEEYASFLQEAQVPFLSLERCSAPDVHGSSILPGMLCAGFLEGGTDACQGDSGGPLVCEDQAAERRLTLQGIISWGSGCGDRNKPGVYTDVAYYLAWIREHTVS
T2 sequence (P03951 388-625 limits assumed): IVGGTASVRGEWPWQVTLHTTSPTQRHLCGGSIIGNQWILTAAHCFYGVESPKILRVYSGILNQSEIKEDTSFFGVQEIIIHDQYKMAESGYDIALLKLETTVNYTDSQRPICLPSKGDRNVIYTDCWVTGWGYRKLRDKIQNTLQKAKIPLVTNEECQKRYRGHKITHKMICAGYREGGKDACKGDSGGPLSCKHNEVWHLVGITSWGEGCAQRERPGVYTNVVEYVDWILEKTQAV
T2 sequence (P03951 19-387 partner limits assumed): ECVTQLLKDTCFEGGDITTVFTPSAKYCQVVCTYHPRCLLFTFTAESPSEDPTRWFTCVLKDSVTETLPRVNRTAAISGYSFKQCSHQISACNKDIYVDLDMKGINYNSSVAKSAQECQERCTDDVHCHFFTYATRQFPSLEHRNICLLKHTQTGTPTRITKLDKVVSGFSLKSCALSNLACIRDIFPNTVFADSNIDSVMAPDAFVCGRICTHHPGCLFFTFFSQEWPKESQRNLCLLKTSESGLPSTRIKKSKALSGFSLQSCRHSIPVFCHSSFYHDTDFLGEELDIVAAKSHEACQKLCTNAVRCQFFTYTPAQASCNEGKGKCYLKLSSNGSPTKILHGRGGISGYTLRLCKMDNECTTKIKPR

| Ki [1] | Ki [2] | Ki [3] | Ki [4] | SMILES |
| --- | --- | --- | --- | --- |
| 0.34 µM | 2.6 µM | 1.4 µM | 0.22 µM | CC(C)(C)OC[C@@H](NS(=O)(=O)Cc1ccccc1)C(=O)NCC(=O)NCc1ccc(C(=N)N)cc1 [Inhibitor 26] |
| 0.061 µM | 2 µM | 0.03 µM | 0.0021 µM | C[C@H](NC(=O)[C@@H](COC(C)(C)C)NS(=O)(=O)Cc1ccccc1)C(=O)NCc1ccc(C(=N)N)cc1 [Inhibitor 27] |
| 0.0065 µM | 0.49 µM | 0.036 µM | 0.002 µM | CC(C)(C)OC[C@@H](NS(=O)(=O)Cc1ccccc1)C(=O)N1CCC[C@H]1C(=O)NCc1ccc(C(=N)N)cc1 [Inhibitor 28] |
| 0.91 µM | > 1000 µM | 0.39 µM | 6 µM | CC(C)(C)OC[C@@H](NS(=O)(=O)Cc1ccccc1)C(=O)N[C@@H](CC(=O)O)C(=O)NCc1ccc(C(=N)N)cc1 [Inhibitor 29] |
| 0.36 µM | 19 µM | 0.079 µM | 2.6 µM | CC(C)(C)OC[C@@H](NS(=O)(=O)Cc1ccccc1)C(=O)N[C@@H](CCC(=O)O)C(=O)NCc1ccc(C(=N)N)cc1 [Inhibitor 30] |
| 0.0092 µM | 6.3 µM | 0.067 µM | 0.021 µM | CC(C)(C)OC[C@@H](NS(=O)(=O)Cc1ccccc1)C(=O)N[C@@H](CCC(N)=O)C(=O)NCc1ccc(C(=N)N)cc1 [Inhibitor 31] |
| 8 µM | > 1000 µM | 8.2 µM | > 1000 µM | CC(C)(C)OC[C@@H](NS(=O)(=O)Cc1ccccc1)C(=O)NC(CC(=O)O)CC(=O)NCc1ccc(C(=N)N)cc1 (some centres unmarked) [Inhibitor 32] |
| 0.022 µM | 4 µM | 0.19 µM | 0.0094 µM | CC(C)(C)OC[C@@H](NS(=O)(=O)Cc1ccccc1)C(=O)N[C@@H](CN)C(=O)NCc1ccc(C(=N)N)cc1 [Inhibitor 33] |
| 0.025 µM | 0.93 µM | 0.31 µM | 0.37 µM | CC(C)(C)OC[C@@H](NS(=O)(=O)Cc1ccccc1)C(=O)N[C@@H](CNC(=O)OCc1ccccc1)C(=O)NCc1ccc(C(=N)N)cc1 [Inhibitor 34] |
| 0.0036 µM | 4.4 µM | 0.51 µM | 0.055 µM | CC(C)(C)OC[C@@H](NS(=O)(=O)Cc1ccccc1)C(=O)N[C@@H](CCCCN)C(=O)NCc1ccc(C(=N)N)cc1 [Inhibitor 35] |
| 0.0094 µM | 5.4 µM | 0.48 µM | 0.024 µM | CC(C)(C)OC[C@@H](NS(=O)(=O)Cc1ccccc1)C(=O)N[C@@H](CCCCNC(=O)OCc1ccccc1)C(=O)NCc1ccc(C(=N)N)cc1 [Inhibitor 36] |
| 0.04 µM | 2.6 µM | 0.34 µM | 0.065 µM | CC(C)(C)OC[C@@H](NS(=O)(=O)Cc1ccccc1)C(=O)N[C@@H](CCCNC(=N)N)C(=O)NCc1ccc(C(=N)N)cc1 [Inhibitor 37] |
| 0.044 µM | 17 µM | 0.4 µM | 0.019 µM | C[C@@H](OCc1ccccc1)[C@H](NC(=O)[C@@H](COC(C)(C)C)NS(=O)(=O)Cc1ccccc1)C(=O)NCc1ccc(C(=N)N)cc1 [Inhibitor 39] |
| 0.052 µM | 6 µM | 0.2 µM | 0.047 µM | CC(C)(C)OC[C@@H](NS(=O)(=O)Cc1ccccc1)C(=O)N[C@@H](CO)C(=O)NCc1ccc(C(=N)N)cc1 [Inhibitor 40] |
| 0.012 µM | 1.4 µM | 0.2 µM | 0.012 µM | CC(C)(C)OC[C@@H](NS(=O)(=O)Cc1ccccc1)C(=O)N[C@@H](COCc1ccccc1)C(=O)NCc1ccc(C(=N)N)cc1 [Inhibitor 41] |
| 0.21 µM | > 1000 µM | 0.74 µM | 13 µM | CC(C)(C)OC[C@@H](NS(=O)(=O)Cc1ccccc1)C(=O)N[C@@H](CO)CC(=O)NCc1ccc(C(=N)N)cc1 [Inhibitor 42] |
| 0.0082 µM | 80 µM | 0.61 µM | 0.5 µM | CC(C)(C)OCC(NS(=O)(=O)Cc1ccccc1)C(=O)NC(CCOCc1ccccc1)C(=O)NCc1ccc(C(=N)N)cc1 (centres unmarked) [Inhibitor 43] |
| 0.0055 µM | 4.6 µM | 0.26 µM | 0.16 µM | CC(C)(C)OC[C@@H](NS(=O)(=O)Cc1ccccc1)C(=O)N[C@@H](Cc1ccccc1)C(=O)NCc1ccc(C(=N)N)cc1 [Inhibitor 44] |
| 0.0045 µM | 1.3 µM | 0.083 µM | 0.048 µM | CC(C)(C)OC[C@@H](NS(=O)(=O)Cc1ccccc1)C(=O)N[C@@H](CCc1ccccc1)C(=O)NCc1ccc(C(=N)N)cc1 [Inhibitor 45] |

| Ki [1] | Ki [2] | Ki [3] | Ki [4] | SMILES |
| --- | --- | --- | --- | --- |
| 1.1 µM | 4.8 µM | 1.6 µM | 0.36 µM | COC(=O)c1ccc(CS(=O)(=O)N[C@H](COC(C)(C)C)C(=O)NCC(=O)NCc2ccc(C(=N)N)cc2)cc1 [Inhibitor 47] |
| 0.0062 µM | 9.5 µM | 0.0069 µM | 0.044 µM | C[C@H](NC(=O)[C@@H](COC(C)(C)C)NS(=O)(=O)Cc1ccc(C(=O)O)cc1)C(=O)NCc1ccc(C(=N)N)cc1 [Inhibitor 48] |
| 0.054 µM | 4.7 µM | 0.079 µM | 0.0043 µM | COC(=O)c1ccc(CS(=O)(=O)N[C@H](COC(C)(C)C)C(=O)N[C@@H](C)C(=O)NCc2ccc(C(=N)N)cc2)cc1 [Inhibitor 49] |
| 4 µM | 1.8 µM | 2.9 µM | 0.12 µM | CC(C)(C)OC[C@@H](NS(=O)(=O)Cc1ccc(CN)cc1)C(=O)NCC(=O)NCc1ccc(C(=N)N)cc1 [Inhibitor 50] |
| 0.0094 µM | 1.6 µM | 0.0091 µM | 6.4e-05 µM | CC(C)(C)OC[C@@H](NS(=O)(=O)Cc1ccc(C#N)cc1)C(=O)N1CCC[C@H]1C(=O)NCc1ccc(C(=N)N)cc1 [Inhibitor 51] |
| 0.0023 µM | 0.83 µM | 0.15 µM | 0.01 µM | N=C(N)c1ccc(CNC(=O)[C@H](CCCCN)NC(=O)[C@@H](CC2CCCCC2)NS(=O)(=O)Cc2ccccc2)cc1 [Inhibitor 53] |
| 0.02 µM | 4 µM | 0.34 µM | 0.015 µM | N=C(N)c1ccc(CNC(=O)[C@H](CCCCNC(=O)OCc2ccccc2)NC(=O)[C@@H](CC2CCCCC2)NS(=O)(=O)Cc2ccccc2)cc1 [Inhibitor 54] |
| 0.09 µM | 0.47 µM | 0.17 µM | 0.0032 µM | N=C(N)c1ccc(CNC(=O)[C@@H]2CCCN2C(=O)[C@@H](CC2CCCCC2)NS(=O)(=O)Cc2cccc(CN)c2)cc1 [Inhibitor 55] |
| 0.044 µM | 5.6 µM | 0.052 µM | < 0.001 µM | N=C(N)c1ccc(CNC(=O)[C@@H]2CCCN2C(=O)[C@@H](CC2CCCCC2)NS(=O)(=O)Cc2cccc(CNC(=O)CCCC(=O)O)c2)cc1 [Inhibitor 56] |
| 0.03 µM | 4 µM | 0.02 µM | 0.081 µM | N=C(N)c1ccc(CNC(=O)[C@H](CCC(=O)O)NC(=O)[C@@H](CC2CCCCC2)NS(=O)(=O)Cc2ccccc2)cc1 [Inhibitor 57] |
| 0.059 µM | 2 µM | 0.23 µM | 0.008 µM | N=C(N)c1ccc(CNC(=O)[C@H](CCCCNC(=O)COCC(=O)NCCOCCOCCOCCOCCOCCOCCOCCN)NC(=O)[C@@H](CC2CCCCC2)NS(=O)(=O)Cc2ccccc2)cc1 [Inhibitor 58] |
| 0.015 µM | 0.98 µM | 0.04 µM | 0.015 µM | N=C(N)c1ccc(CNC(=O)[C@H](CCC(=O)NCCCOCCOCCOCCCN)NC(=O)[C@@H](CC2CCCCC2)NS(=O)(=O)Cc2ccccc2)cc1 [Inhibitor 59] |
| 0.0055 µM | 0.094 µM | 0.031 µM | 0.17 µM | N=C(N)c1ccc(CNC(=O)[C@H](CCC(=O)OCc2ccccc2)NC(=O)[C@@H](CCc2ccncc2)NS(=O)(=O)Cc2ccccc2)cc1 [Inhibitor 60] |
| 0.0091 µM | 29 µM | 0.014 µM | 0.24 µM | N=C(N)c1ccc(CNC(=O)[C@@H]2CCCN2C(=O)[C@@H](CO)NS(=O)(=O)Cc2ccc(C(=O)O)cc2)cc1 [Inhibitor 61] |
| 0.011 µM | 0.7 µM | 25 µM | 0.009 µM | N=C(N)c1ccc(CNC(=O)CNC(=O)[C@@H](CC2CCCCC2)NS(=O)(=O)Cc2ccccc2)cc1 [Inhibitor 63] |
| 0.015 µM | 17 µM | 0.03 µM | 2 µM | CC(C)(C)OC[C@@H](NS(=O)(=O)Cc1ccc(C(=O)O)cc1)C(=O)N[C@@H](CO)C(=O)NCc1ccc(C(=N)N)cc1 [Inhibitor 65] |
| 0.019 µM | 0.63 µM | 3 µM | 0.55 µM | N=C(N)c1ccc(CNC(=O)[C@H](CO)NC(=O)[C@@H](CCc2ccccc2)NS(=O)(=O)Cc2ccccc2)cc1 [Inhibitor 67] |
| 0.051 µM | 0.39 µM | 0.093 µM | 0.71 µM | N=C(N)c1ccc(CNC(=O)CNC(=O)[C@@H](CCc2ccccc2)NS(=O)(=O)Cc2ccc([N+](=O)[O-])cc2)cc1 [Inhibitor 74] |
| 0.082 µM | 0.19 µM | 0.25 µM | 0.085 µM | N=C(N)c1ccc(CNC(=O)CNC(=O)[C@@H](Cc2cccc(C(=N)N)c2)NS(=O)(=O)Cc2ccccc2)cc1 [Inhibitor 77] |
